Results published in patent US6054435A, “6-O-substituted macrolides having antibacterial activity” (priority 1999, dated 2000).
Values after ≈ are worked out from the molar mass of the structure shown.

Assays:
Assay in all cases: in vitro antibacterial activity (MIC), agar dilution
Type in all cases: cell-based
Candida albicans CCH 442 = conditions: organism code TT; BHI agar, 35-37° C., 20 to 24 hours; unit assumed
Description: (§1) Representative compounds of the present invention were assayed in vitro for antibacterial activity as follows: Twelve petri dishes containing successive aqueous dilutions of the test compound mixed with 10 mL of sterilized Brain Heart Infusion (BHI) agar (Difco 0418-01-5) were prepared. Each plate was inoculated with 1:100 (or 1:10 for slow-growing strains, such as Micrococcus and Streptococcus) dilutions of up to 32 different microorganisms, using a Steers replicator block. […] In addition, a control plate, using BHI agar containing no test compound, was prepared and incubated at the beginning and end of each test.
(§2) An additional plate containing a compound having known susceptibility patterns for the organisms being tested and belonging to the same antibiotic class as the test compound was also prepared and incubated as a further control, as well as to provide test-to-test comparability.
(§3) After incubation, each plate was visually inspected. The minimum inhibitory concentration (MIC) was defined as the lowest concentration of drug yielding no growth, a slight haze, or sparsely isolated colonies on the inoculum spot as compared to the growth control.

[1] = system: Enterococcus faecium ATCC 8043; conditions: organism code II; BHI agar, 35-37° C., 20 to 24 hours; unit assumed
Description: as §1, §2, §3

Escherichia coli DC-2 = conditions: organism code SS; BHI agar, 35-37° C., 20 to 24 hours; unit assumed
Description: as §1, §2, §3

Escherichia coli JUHL = conditions: organism code QQ; BHI agar, 35-37° C., 20 to 24 hours; unit assumed
Description: as §1, §2, §3

Escherichia coli SS = conditions: organism code RR; BHI agar, 35-37° C., 20 to 24 hours; unit assumed
Description: as §1, §2, §3

[2] = system: Haemophilis Influenzae DILL AMP R; conditions: organism code WW; BHI agar, 35-37° C., 20 to 24 hours; unit assumed
Description: as §1, §2, §3

[3] = system: Micrococcus luteus ATCC 4698; conditions: organism code PP; BHI agar, 35-37° C., 20 to 24 hours; unit assumed
Description: as §1, §2, §3

[4] = system: Micrococcus luteus ATCC 9341; conditions: organism code OO; BHI agar, 35-37° C., 20 to 24 hours; unit assumed
Description: as §1, §2, §3

[5] = system: Mycobacterium smegmatis ATCC 114; conditions: organism code UU; BHI agar, 35-37° C., 20 to 24 hours; unit assumed
Description: as §1, §2, §3

[6] = system: Nocardia Asteroides ATCC9970; conditions: organism code VV; BHI agar, 35-37° C., 20 to 24 hours; unit assumed
Description: as §1, §2, §3

[7] = system: Staphylococcus aureus 1775; conditions: organism code GG; BHI agar, 35-37° C., 20 to 24 hours; unit assumed
Description: as §1, §2, §3

[8] = system: Staphylococcus aureus A-5278; conditions: organism code CC; BHI agar, 35-37° C., 20 to 24 hours; unit assumed
Description: as §1, §2, §3

[9] = system: Staphylococcus aureus A5177; conditions: organism code BB; BHI agar, 35-37° C., 20 to 24 hours; unit assumed
Description: as §1, §2, §3

[10] = system: Staphylococcus aureus ATCC 6538P; conditions: organism code AA; BHI agar, 35-37° C., 20 to 24 hours; unit assumed
Description: as §1, §2, §3

[11] = system: Staphylococcus aureus CMX 553; conditions: organism code FF; BHI agar, 35-37° C., 20 to 24 hours; unit assumed
Description: as §1, §2, §3

[12] = system: Staphylococcus aureus CMX 642A; conditions: organism code DD; BHI agar, 35-37° C., 20 to 24 hours; unit assumed
Description: as §1, §2, §3

[13] = system: Staphylococcus aureus NCTC10649M; conditions: organism code EE; BHI agar, 35-37° C., 20 to 24 hours; unit assumed
Description: as §1, §2, §3

[14] = system: Staphylococcus epidermidis 3519; conditions: organism code HH; BHI agar, 35-37° C., 20 to 24 hours; unit assumed
Description: as §1, §2, §3

[15] = system: Streptococcus Pneumonia 5649; conditions: organism code ZZA; BHI agar, 35-37° C., 20 to 24 hours; unit assumed
Description: as §1, §2, §3

[16] = system: Streptococcus Pneumonia 5979; conditions: organism code ZZ; BHI agar, 35-37° C., 20 to 24 hours; unit assumed
Description: as §1, §2, §3

[17] = system: Streptococcus Pneumonia ATCC6303; conditions: organism code XX; BHI agar, 35-37° C., 20 to 24 hours; unit assumed
Description: as §1, §2, §3

[18] = system: Streptococcus Pneumonia GYR 1171; conditions: organism code YY; BHI agar, 35-37° C., 20 to 24 hours; unit assumed
Description: as §1, §2, §3

[19] = system: Streptococcus agalactiae CMX 508; conditions: organism code KK; BHI agar, 35-37° C., 20 to 24 hours; unit assumed
Description: as §1, §2, §3

[20] = system: Streptococcus bovis A-5169; conditions: organism code JJ; BHI agar, 35-37° C., 20 to 24 hours; unit assumed
Description: as §1, §2, §3

[21] = system: Streptococcus pyogenes 930; conditions: organism code MM; BHI agar, 35-37° C., 20 to 24 hours; unit assumed
Description: as §1, §2, §3

[22] = system: Streptococcus pyogenes EES61; conditions: organism code LL; BHI agar, 35-37° C., 20 to 24 hours; unit assumed
Description: as §1, §2, §3

[23] = system: Streptococcus pyogenes PIU 2548; conditions: organism code NN; BHI agar, 35-37° C., 20 to 24 hours; unit assumed
Description: as §1, §2, §3

Row | SMILES | MIC (Candida albicans CCH 442) | MIC [1] | MIC (Escherichia coli DC-2) | MIC (Escherichia coli JUHL) | MIC (Escherichia coli SS) | MIC [2] | MIC [3] | MIC [4] | MIC [5] | MIC [6] | MIC [7] | MIC [8] | MIC [9] | MIC [10] | MIC [11] | MIC [12] | MIC [13] | MIC [14] | MIC [15] | MIC [16] | also measured
1 | CC[C@H]1OC(=O)[C@H](C)C(=O)[C@H](C)[C@@H](O[C@@H]2O[C@H](C)C[C@H](N(C)C)[C@H]2O)[C@](C)(OC/C=C/c2ccc(-c3ccco3)s2)C[C@@H](C)C(=O)[C@H](C)[C@H]2NC(=O)O[C@@]21C [Example 77] | > 100 µg/mL | 0.05 µg/mL (≈ 0.0635 µM) | 50 µg/mL (≈ 63.5 µM) | 50 µg/mL (≈ 63.5 µM) | 0.39 µg/mL (≈ 0.496 µM) | 8 µg/mL (≈ 10.2 µM) | 0.2 µg/mL (≈ 0.254 µM) | 0.02 µg/mL (≈ 0.0254 µM) | 0.78 µg/mL (≈ 0.991 µM) | 0.2 µg/mL (≈ 0.254 µM) | 100 µg/mL (≈ 127 µM) | 100 µg/mL (≈ 127 µM) | 0.1 µg/mL (≈ 0.127 µM) | 0.1 µg/mL (≈ 0.127 µM) | 0.1 µg/mL (≈ 0.127 µM) | 0.1 µg/mL (≈ 0.127 µM) | 0.1 µg/mL (≈ 0.127 µM) | 0.1 µg/mL (≈ 0.127 µM) | 0.25 µg/mL (≈ 0.318 µM) | 16 µg/mL (≈ 20.3 µM) | MIC [17]: ≤ 0.004 µg/mL; MIC [18]: ≤ 0.004 µg/mL; MIC [19]: 0.02 µg/mL (≈ 0.0254 µM); MIC [20]: 0.01 µg/mL (≈ 0.0127 µM); MIC [21]: 12.5 µg/mL (≈ 15.9 µM); MIC [22]: 0.05 µg/mL (≈ 0.0635 µM); MIC [23]: 0.2 µg/mL (≈ 0.254 µM)
2 | CC[C@H]1OC(=O)[C@H](C)C(=O)[C@H](C)[C@@H](O[C@@H]2O[C@H](C)C[C@H](N(C)C)[C@H]2O)[C@](C)(OCC#Cc2ccc(-c3ccc(F)cc3)s2)C[C@@H](C)C(=O)[C@H](C)[C@H]2NC(=O)O[C@@]21C [Example 22] | > 100 µg/mL | 0.78 µg/mL (≈ 0.959 µM) | > 100 µg/mL | > 100 µg/mL | 25 µg/mL (≈ 30.8 µM) | 64 µg/mL (≈ 78.7 µM) | 3.1 µg/mL (≈ 3.81 µM) | 0.39 µg/mL (≈ 0.48 µM) | 1.56 µg/mL (≈ 1.92 µM) | 0.78 µg/mL (≈ 0.959 µM) | > 100 µg/mL | > 100 µg/mL | 3.1 µg/mL (≈ 3.81 µM) | 3.1 µg/mL (≈ 3.81 µM) | 3.1 µg/mL (≈ 3.81 µM) | 3.1 µg/mL (≈ 3.81 µM) | 3.1 µg/mL (≈ 3.81 µM) | 3.1 µg/mL (≈ 3.81 µM) | 4 µg/mL (≈ 4.92 µM) | 4 µg/mL (≈ 4.92 µM) | MIC [17]: 1 µg/mL (≈ 1.23 µM); MIC [18]: 1 µg/mL (≈ 1.23 µM); MIC [19]: 0.39 µg/mL (≈ 0.48 µM); MIC [20]: 0.39 µg/mL (≈ 0.48 µM); MIC [21]: > 100 µg/mL; MIC [22]: 0.39 µg/mL (≈ 0.48 µM); MIC [23]: 3.1 µg/mL (≈ 3.81 µM)
3 | CC[C@H]1OC(=O)[C@H](C)C(=O)[C@H](C)[C@@H](O[C@@H]2O[C@H](C)C[C@H](N(C)C)[C@H]2O)[C@](C)(OC/C=C/c2cnc(-c3cnccn3)s2)C[C@@H](C)C(=O)[C@H](C)[C@H]2NC(=O)O[C@@]21C [Example 58] | > 100 µg/mL | 0.02 µg/mL (≈ 0.025 µM) | 100 µg/mL (≈ 125 µM) | 50 µg/mL (≈ 62.5 µM) | 0.2 µg/mL (≈ 0.25 µM) | 4 µg/mL (≈ 5 µM) | 0.05 µg/mL (≈ 0.0625 µM) | 0.01 µg/mL (≈ 0.0125 µM) | 1.56 µg/mL (≈ 1.95 µM) | 0.02 µg/mL (≈ 0.025 µM) | > 100 µg/mL | > 100 µg/mL | 0.05 µg/mL (≈ 0.0625 µM) | 0.1 µg/mL (≈ 0.125 µM) | 0.05 µg/mL (≈ 0.0625 µM) | 0.1 µg/mL (≈ 0.125 µM) | 0.1 µg/mL (≈ 0.125 µM) | 0.1 µg/mL (≈ 0.125 µM) | 0.25 µg/mL (≈ 0.313 µM) | 4 µg/mL (≈ 5 µM) | MIC [17]: ≤ 0.004 µg/mL; MIC [18]: ≤ 0.004 µg/mL; MIC [19]: 0.02 µg/mL (≈ 0.025 µM); MIC [20]: 0.01 µg/mL (≈ 0.0125 µM); MIC [21]: 3.1 µg/mL (≈ 3.88 µM); MIC [22]: 0.02 µg/mL (≈ 0.025 µM); MIC [23]: 0.1 µg/mL (≈ 0.125 µM)
